Data taken from PMC4393269, “Carvacrol Codrugs: A New Approach in the Antimicrobial Plan” (PLoS ONE, 2015).
≈ marks a conversion by molar mass, not a printed value. Read-outs that look alike come from different tables or passages of the source. Values belong to the compound of their own block, whether it stands above or below them.

Assays:
Type in all cases: cell-based
E. coli ATCC 8739 [1] = assay: Broth microdilution MIC/MBC on planktonic cells; conditions: Escherichia coli
Experimental: (§1) Two Gram-positive (S. aureus ATCC 29213 and S. epidermidis ATCC 35984) and two Gram-negative (E. coli ATCC 8739 and P. aeruginosa ATCC 9027) strains, and one fungal strain (C. albicans ATCC 10231) were used for the detection of antibacterial activity of carvacrol, NAC, Ac-Cys(Allyl)-OH, and carvacrol codrugs 1–10. All tested compounds were dissolved in 20% DMSO to prepare the stock solution (100 mg/mL). The final concentration of DMSO in each well appeared to be not toxic for all studied microorganisms, as confirmed by the solvent control test included in the study.
(§2) The effects of carvacrol codrugs 1–10 and reference compounds on planktonic cells were evaluated by Minimum Inhibitory Concentration (MIC) and Minimum Bactericidal Concentration (MBC) determination using the broth microdilution method according to EUCAST guidelines. Bacterial suspensions, grown in Mueller–Hinton Broth (MHB) at logarithmic phase, were incubated on microtiter plates at a concentration of 5 x 10^5 CFU/mL, with several dilutions (0.07–40 mg/mL) for 24 h at 37°C. The MIC was defined as the lowest concentration of substances giving a complete inhibition of visible growth in comparison with a control well, and the MBC was determined as the lowest concentration at which no bacterial growth occurred on Mueller–Hinton Agar plates.
(§3) Data were obtained from at least three independent experiments performed in duplicate. The susceptibility of the bacterial strains against ciprofloxacin was used as an internal standard during MIC determinations.

P. aeruginosa ATCC 9027 [2] = assay: Broth microdilution MIC/MBC on planktonic cells; conditions: Pseudomonas aeruginosa
Experimental: as §1, §2, §3

S. aureus ATCC 29213 [3] = assay: Broth microdilution MIC/MBC on planktonic cells; conditions: Staphylococcus aureus
Experimental: as §1, §2, §3

[4] = tested on: S. epidermidis ATCC 35984; assay: Broth microdilution MIC/MBC on planktonic cells; conditions: Staphylococcus epidermidis
Experimental: as §1, §2, §3

C. albicans ATCC 10231 [5] = assay: Broth microdilution MIC/MFC; conditions: Candida albicans, ATCC10231
Experimental: as §1
The MIC detection of C. albicans ATCC 10231 was performed using the broth microdilution method according to EUCAST guidelines in RPMI 1640 plus 2% glucose with a final inoculum of 1–5 x 10^5 CFU/mL for 24–48 h at 37°C. The Minimum Fungicidal Concentration (MFC) was determined as the lowest concentration of substances at which no fungal growth occurred on Sabouraud agar plates.
as §3

C. albicans ATCC 10231 [6] = assay: Antibiofilm assay on established biofilm (BIC/BEC)
Experimental: (§4) The efficacy on established biofilm was evaluated by determining Biofilm Inhibitory Concentration (BIC) and Biofilm Eradication Concentration (BEC) according to the method described by Johnson et al. with some modifications. Bacterial suspensions, grown in Tryptic soy broth supplemented with 0.5% (v/v) glucose at logarithmic phase, as well as C. albicans grown in RPMI 1640 plus 2% glucose, were incubated on flat-bottomed microtiter plates at a concentration of 5 x 10^5 CFU/mL. After 24 h of incubation at 37°C, the planktonic cells were gently removed and wells were washed with sterile phosphate-buffered saline solution (PBS) pH 7.3 and filled with carvacrol, carvacrol codrug 4, Ac-Cys(Allyl)-OH with dilutions ranging from the MIC values to a maximum concentration of 50 mg/mL. The OD600 was measured at time 0 and after incubation for 24 h at 37°C. The BIC values were determined as the lowest concentrations where no growth occurred in the supernatant fluid, confirmed by no increase in optical density compared with the initial reading. The BEC values were determined as the lowest concentrations at which no bacterial growth occurred on Tryptic soy agar for bacteria and on Sabouraud agar for C. albicans. Data were obtained from at least three independent experiments performed in duplicate.

E. coli ATCC 8739 [7] = assay: Antibiofilm assay on established biofilm (BIC/BEC)
Experimental: as §4

P. aeruginosa ATCC 9027 [8] = assay: Antibiofilm assay on established biofilm (BIC/BEC)
Experimental: as §4

S. aureus ATCC 29213 [9] = assay: Antibiofilm assay on established biofilm (BIC/BEC); conditions: S. aureus ATCC 29213 established biofilm
Experimental: as §4

[10] = tested on: S. epidermidis ATCC 35984; assay: Antibiofilm assay on established biofilm (BIC/BEC)
Experimental: as §4

[11] = tested on: Gram positive and Gram negative tested bacteria; assay: Broth microdilution MIC/MBC, range over the bacterial panel; conditions: Gram positive and Gram negative tested bacteria
Experimental: as §1
as §2, with “plates. […]” for “plates.”

[12] = tested on: human red blood cells (h-RBC); assay: Hemolytic activity; conditions: 4% h-RBC, 1 h at 37°C
Experimental: Experimental protocols to study hemolysis on human red cells were approved by Ethics Committee of the University “G. d’Annunzio” Chieti-Pescara. Human red cells were from two volunteers, who signed the informed consent for this study.
Hemolytic activity of carvacrol codrugs 1–10 was tested against human red blood cells (h-RBC). Fresh human blood, collected with EDTA, was centrifuged at 3000 rpm for 5 min then washed three times with PBS pH 7.3. Red blood cells were diluted to 4% in PBS and incubated with different codrugs concentrations ranging from 25 to 0.05 mg/mL. After 1 h of incubation at 37°C, the suspensions were sedimented by centrifugation and the release of hemoglobin was determined by absorbance measurement at 405 nm and compared with a 0% hemolysis control (PBS) and a 100% hemolysis control (PBS with 1% v/v Triton X-100). The percentage of hemolysis was calculated using the following equation: Hemolysis (%) = [(OD405sample - OD4050% lysis control)/(OD405100% lysis control - OD4050% lysis contro)] X 100

[13] = ATCC8739, E. coli ATCC 8739, 24 h at 37°C, read-out: MIC
[14] = ATCC8739, E. coli ATCC 8739, read-out: MBC
[15] = ATCC9027, P. aeruginosa ATCC 9027, 24 h at 37°C, read-out: MIC
[16] = ATCC9027, P. aeruginosa ATCC 9027, read-out: MBC
[17] = ATCC29213, S. aureus ATCC 29213, 24 h at 37°C, read-out: MIC
[18] = ATCC29213, S. aureus ATCC 29213, read-out: MBC
[19] = ATCC35984, S. epidermidis ATCC 35984, 24 h at 37°C, read-out: MIC
[20] = ATCC35984, S. epidermidis ATCC 35984, read-out: MBC
[21] = C. albicans ATCC 10231, 24–48 h at 37°C, read-out: MIC
[22] = C. albicans ATCC 10231, read-out: MFC

MIC (E. coli ATCC 8739 [1]; [13]): 10000 µg/mL (≈ 32.3 mM) | MIC (P. aeruginosa ATCC 9027 [2]; [15]): 10000 µg/mL (≈ 32.3 mM) | MIC (S. aureus ATCC 29213 [3]; [17]): 10000 µg/mL (≈ 32.3 mM) | MIC [4, 19]: 2500 µg/mL (≈ 8.08 mM) | MIC (C. albicans ATCC 10231 [5]; [21]): 5000 µg/mL (≈ 16.2 mM)
SMILES: CSC[C@H](NC(C)=O)C(=O)Oc1cc(C(C)C)ccc1C [codrug 2, N-Ac-Cys(Methyl)-CAR]
MBC (E. coli ATCC 8739 [1]; [14]): 10000 µg/mL (≈ 32.3 mM) | MBC (P. aeruginosa ATCC 9027 [2]; [16]): 10000 µg/mL (≈ 32.3 mM) | MBC (S. aureus ATCC 29213 [3]; [18]): 10000 µg/mL (≈ 32.3 mM) | MBC [4, 20]: 10000 µg/mL (≈ 32.3 mM) | MFC (C. albicans ATCC 10231 [5]; [22]): 5000 µg/mL (≈ 16.2 mM) | concentration at which hemolytic activity is over 50% [12]: over 20 mg/mL

MIC (E. coli ATCC 8739 [1]; [13]): 10000 µg/mL (≈ 30.9 mM) | MIC (P. aeruginosa ATCC 9027 [2]; [15]): 10000 µg/mL (≈ 30.9 mM) | MIC (S. aureus ATCC 29213 [3]; [17]): 10000 µg/mL (≈ 30.9 mM) | MIC [4, 19]: 10000 µg/mL (≈ 30.9 mM) | MIC (C. albicans ATCC 10231 [5]; [21]): 2500 µg/mL (≈ 7.73 mM)
SMILES: CCSC[C@H](NC(C)=O)C(=O)Oc1cc(C(C)C)ccc1C [codrug 3, N-Ac-Cys(Ethyl)-CAR]
MBC (E. coli ATCC 8739 [1]; [14]): 10000 µg/mL (≈ 30.9 mM) | MBC (P. aeruginosa ATCC 9027 [2]; [16]): 10000 µg/mL (≈ 30.9 mM) | MBC (S. aureus ATCC 29213 [3]; [18]): 10000 µg/mL (≈ 30.9 mM) | MBC [4, 20]: 10000 µg/mL (≈ 30.9 mM) | MFC (C. albicans ATCC 10231 [5]; [22]): 2500 µg/mL (≈ 7.73 mM) | concentration at which hemolytic activity is over 50% [12]: over 20 mg/mL

Continued, compound first:

SMILES: Cc1ccc(C(C)C)cc1O [Carvacrol, 2-methyl-5-[1-methylethyl]phenol]
MBC (E. coli ATCC 8739 [1]; ATCC8739): 1250 µg/mL (≈ 8.32 mM) | MIC (E. coli ATCC 8739 [1]; ATCC8739, 24 h): 600 µg/mL (≈ 3.99 mM) | MBC (P. aeruginosa ATCC 9027 [2]; ATCC9027): 10000 µg/mL (≈ 66.6 mM) | MIC (P. aeruginosa ATCC 9027 [2]; ATCC9027, 24 h): 5000 µg/mL (≈ 33.3 mM) | MBC (S. aureus ATCC 29213 [3]; ATCC29213): 1250 µg/mL (≈ 8.32 mM) | MIC (S. aureus ATCC 29213 [3]; ATCC29213, 24 h): 600 µg/mL (≈ 3.99 mM) | MBC ([4]; ATCC35984): 1250 µg/mL (≈ 8.32 mM) | MIC ([4]; ATCC35984, 24 h): 300 µg/mL (≈ 2 mM) | MFC (C. albicans ATCC 10231 [5]): 600 µg/mL (≈ 3.99 mM) | MIC (C. albicans ATCC 10231 [5]): 300 µg/mL (≈ 2 mM) | BEC as multiple of MIC (C. albicans ATCC 10231 [6]; C. albicans ATCC 10231): MFC | BEC (C. albicans ATCC 10231 [6]; C. albicans ATCC 10231 established biofilm): 0.6 mg/mL | BIC (C. albicans ATCC 10231 [6]; C. albicans ATCC 10231 established biofilm, 24 h): 0.3 mg/mL | BEC as multiple of MIC (E. coli ATCC 8739 [7]; E. coli ATCC 8739): 64MIC | BIC as multiple of MIC (E. coli ATCC 8739 [7]; E. coli ATCC 8739): 64MIC | BEC (E. coli ATCC 8739 [7]; E. coli ATCC 8739 established biofilm): 40 mg/mL | BIC (E. coli ATCC 8739 [7]; E. coli ATCC 8739 established biofilm, 24 h): 40 mg/mL | BEC as multiple of MIC (P. aeruginosa ATCC 9027 [8]; P. aeruginosa ATCC 9027): 2MIC | BEC (P. aeruginosa ATCC 9027 [8]; P. aeruginosa ATCC 9027 established biofilm): 10 mg/mL | BIC (P. aeruginosa ATCC 9027 [8]; P. aeruginosa ATCC 9027 established biofilm, 24 h): 5 mg/mL | BEC (S. aureus ATCC 29213 [9]): 2.5 mg/mL | BIC (S. aureus ATCC 29213 [9]; 24 h): 1.2 mg/mL | BEC as multiple of MIC ([10]; S. epidermidis ATCC 35984): 2MIC | BEC ([10]; S. epidermidis ATCC 35984 established biofilm): 0.6 mg/mL | BIC ([10]; S. epidermidis ATCC 35984 established biofilm, 24 h): 0.3 mg/mL

SMILES: CC(=O)N[C@@H](CS)C(=O)O [NAC, N-Acetyl-cysteine, reference compound]
MIC (E. coli ATCC 8739 [1]; [13]): 5000 µg/mL (≈ 30.6 mM) | MBC (E. coli ATCC 8739 [1]; [14]): 5000 µg/mL (≈ 30.6 mM) | MIC (P. aeruginosa ATCC 9027 [2]; [15]): 5000 µg/mL (≈ 30.6 mM) | MBC (P. aeruginosa ATCC 9027 [2]; [16]): 5000 µg/mL (≈ 30.6 mM) | MIC (S. aureus ATCC 29213 [3]; [17]): 5000 µg/mL (≈ 30.6 mM) | MBC (S. aureus ATCC 29213 [3]; [18]): 20000 µg/mL (≈ 123 mM) | MIC [4, 19]: 5000 µg/mL (≈ 30.6 mM) | MBC [4, 20]: 5000 µg/mL (≈ 30.6 mM) | MIC (C. albicans ATCC 10231 [5]; [21]): 20000 µg/mL (≈ 123 mM) | MFC (C. albicans ATCC 10231 [5]; [22]): 80000 µg/mL (≈ 490 mM) | MIC and MBC values (range over strains) [11]: 5000 to 20000 µg/mL

SMILES: CC(=O)N[C@@H](CS)C(=O)Oc1cc(C(C)C)ccc1C [codrug 1, NAC-CAR]
MIC (E. coli ATCC 8739 [1]; [13]): 10000 µg/mL (≈ 33.9 mM) | MBC (E. coli ATCC 8739 [1]; [14]): 10000 µg/mL (≈ 33.9 mM) | MIC (P. aeruginosa ATCC 9027 [2]; [15]): 10000 µg/mL (≈ 33.9 mM) | MBC (P. aeruginosa ATCC 9027 [2]; [16]): 10000 µg/mL (≈ 33.9 mM) | MIC (S. aureus ATCC 29213 [3]; [17]): 10000 µg/mL (≈ 33.9 mM) | MBC (S. aureus ATCC 29213 [3]; [18]): 10000 µg/mL (≈ 33.9 mM) | MIC [4, 19]: 5000 µg/mL (≈ 16.9 mM) | MBC [4, 20]: 20000 µg/mL (≈ 67.7 mM) | MIC (C. albicans ATCC 10231 [5]; [21]): 300 µg/mL (≈ 1.02 mM) | MFC (C. albicans ATCC 10231 [5]; [22]): 300 µg/mL (≈ 1.02 mM) | hemolytic activity, maximum at the tested concentrations ([12]; 25 to 0.05 mg/mL): ≤ 40%
